The values below come from ChEMBL document CHEMBL1201862, “PubChem BioAssay data set” (2004).

For assay [1], the target named is T1, Type-1 angiotensin II receptor (Homo sapiens, UniProt P30556).
T1 sequence (P30556 whole entry): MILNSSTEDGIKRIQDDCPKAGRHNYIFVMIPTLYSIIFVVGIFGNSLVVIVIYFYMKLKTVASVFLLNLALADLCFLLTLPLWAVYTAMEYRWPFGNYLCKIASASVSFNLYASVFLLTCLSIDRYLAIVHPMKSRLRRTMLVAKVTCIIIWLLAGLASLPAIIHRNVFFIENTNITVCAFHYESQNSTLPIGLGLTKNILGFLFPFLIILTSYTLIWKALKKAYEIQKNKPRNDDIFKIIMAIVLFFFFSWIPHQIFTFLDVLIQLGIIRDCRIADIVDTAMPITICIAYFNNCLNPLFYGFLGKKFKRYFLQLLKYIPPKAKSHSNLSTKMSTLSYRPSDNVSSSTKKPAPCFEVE
Briefly: AT1 receptor agonists, dose response, selectivity assay for APJ receptor agonist project, cell-based, uHTS hits (AID 488865).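 Note: beta-arrestin recruitment to AT1 measured by enzyme fragment complementation luminescence.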 The format is functional.

The test system of a further assay is H9c2. Briefly: cells. The format is functional, cell-based. The settings on record: Rattus norvegicus, H9c2, Myocardium.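 Note: confirmatory concentration-response retest of ultra-high-throughput screening hits for modulation of myocardial damage; cell death induced by hydrogen peroxide oxidative stress; compound pretreatment for 60 min then peroxide exposure for 2 h; potency is for protecting the cells against peroxide damage rather than for killing them.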
The target of assay [2] is T2, Kappa-type opioid receptor (Homo sapiens, UniProt P41145). The format is functional.
Assay [3] concerns the target T3, Beta-galactosidase (Escherichia coli, UniProt Q8VNN2). The format is functional.
Assay [4] addresses T2, Kappa-type opioid receptor. The format is functional. This is another data set of the same source.
For assay [5], the target named is T4, C-C chemokine receptor type 6 (Homo sapiens, UniProt P51684).
T4 sequence (P51684 whole entry): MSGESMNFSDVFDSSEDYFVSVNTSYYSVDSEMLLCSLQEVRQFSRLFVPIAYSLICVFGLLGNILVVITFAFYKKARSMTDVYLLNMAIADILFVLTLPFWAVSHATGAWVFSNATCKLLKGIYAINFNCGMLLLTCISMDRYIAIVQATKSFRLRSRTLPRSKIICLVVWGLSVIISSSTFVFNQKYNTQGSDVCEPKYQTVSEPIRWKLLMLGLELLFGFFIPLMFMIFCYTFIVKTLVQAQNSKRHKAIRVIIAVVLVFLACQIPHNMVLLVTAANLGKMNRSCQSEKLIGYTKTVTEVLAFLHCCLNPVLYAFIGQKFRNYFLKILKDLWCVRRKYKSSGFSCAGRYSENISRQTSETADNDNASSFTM
The assay can be described thus: CCR6 receptor antagonists, dose response, cell-based, luminescent beta-arrestin readout (AID 504728). The format is functional.

Assay [6] deals with T3, Beta-galactosidase. Briefly: beta-galactosidase enzyme inhibitors and activators, dose response, artefact control for CCR6 antagonist project, biochemical, E. coli enzyme, set 3 (AID 504712). The format is functional.
Assay [7] concerns the target T5, Polyadenylate-binding protein 1 (Homo sapiens, UniProt P11940). The assay can be described thus: PABP1 MLLE–PAM2 interaction inhibitors, dose response, miRNA deadenylation inhibitor project, biochemical, fluorescence polarization, Cy5-PAM2 peptide, secondary (AID 602260). The format is functional. The settings on record: read-out: IC50_Mean.
Assay [8] concerns the target T5, Polyadenylate-binding protein 1. The assay can be described thus: PABP1 MLLE–PAM2 binding inhibitor potency, dose response, biochemical, fluorescence polarization, FITC-PAM2 peptide (AID 602259). The format is functional. The settings on record: read-out: IC50_Mean. Background: Polarisation of emitted light reports the rotation of a fluorescent probe.
A further assay deals with Integrin alpha-L (Mus musculus, UniProt P24063). Briefly: modulators of CD8 T cell-vesicle binding, dose response, powder samples, mouse 2C CD8+ cells (AID 504565). The format is functional.
Assay [9] in a line: cells.
A further assay addresses Trypsin (Sus scrofa, UniProt P00761). Briefly: porcine trypsin inhibitors, dose response, selectivity assay for Rce1 protease inhibitor project, biochemical, quenched peptide fluorescence, cherry-pick (AID 488789).
Assay [10] is described as follows: THP-1 cell cytotoxicity, dose response, cytotoxicity control for non-replicating M. tuberculosis project (AID 489025). The format is functional.
Assay [11] can be described thus: cells. The format is functional.
Assay [12] concerns the target Peroxisome proliferator-activated receptor gamma/Nuclear receptor coactivator 2 (Homo sapiens, UniProt P37231). The format is functional.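 Note: agonist potency for raising coactivator recruitment to the receptor.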
In assay [13] the target is Peroxisome proliferator-activated receptor gamma/Nuclear receptor coactivator 1 (Homo sapiens, UniProt P37231). The format is functional.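 Note: agonist potency as compounds enhance coactivator SRC-1 recruitment to PPARgamma.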
The target in assay [14] is Peroxisome proliferator-activated receptor gamma/Nuclear receptor coactivator 3 (Homo sapiens, UniProt P37231). The format is functional.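 Note: agonist potency for raising coactivator recruitment to the receptor.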
The target of assay [15] is T6, Short transient receptor potential channel 4 (Mus musculus, UniProt Q9QUQ5).
T6 sequence (Q9QUQ5 whole entry): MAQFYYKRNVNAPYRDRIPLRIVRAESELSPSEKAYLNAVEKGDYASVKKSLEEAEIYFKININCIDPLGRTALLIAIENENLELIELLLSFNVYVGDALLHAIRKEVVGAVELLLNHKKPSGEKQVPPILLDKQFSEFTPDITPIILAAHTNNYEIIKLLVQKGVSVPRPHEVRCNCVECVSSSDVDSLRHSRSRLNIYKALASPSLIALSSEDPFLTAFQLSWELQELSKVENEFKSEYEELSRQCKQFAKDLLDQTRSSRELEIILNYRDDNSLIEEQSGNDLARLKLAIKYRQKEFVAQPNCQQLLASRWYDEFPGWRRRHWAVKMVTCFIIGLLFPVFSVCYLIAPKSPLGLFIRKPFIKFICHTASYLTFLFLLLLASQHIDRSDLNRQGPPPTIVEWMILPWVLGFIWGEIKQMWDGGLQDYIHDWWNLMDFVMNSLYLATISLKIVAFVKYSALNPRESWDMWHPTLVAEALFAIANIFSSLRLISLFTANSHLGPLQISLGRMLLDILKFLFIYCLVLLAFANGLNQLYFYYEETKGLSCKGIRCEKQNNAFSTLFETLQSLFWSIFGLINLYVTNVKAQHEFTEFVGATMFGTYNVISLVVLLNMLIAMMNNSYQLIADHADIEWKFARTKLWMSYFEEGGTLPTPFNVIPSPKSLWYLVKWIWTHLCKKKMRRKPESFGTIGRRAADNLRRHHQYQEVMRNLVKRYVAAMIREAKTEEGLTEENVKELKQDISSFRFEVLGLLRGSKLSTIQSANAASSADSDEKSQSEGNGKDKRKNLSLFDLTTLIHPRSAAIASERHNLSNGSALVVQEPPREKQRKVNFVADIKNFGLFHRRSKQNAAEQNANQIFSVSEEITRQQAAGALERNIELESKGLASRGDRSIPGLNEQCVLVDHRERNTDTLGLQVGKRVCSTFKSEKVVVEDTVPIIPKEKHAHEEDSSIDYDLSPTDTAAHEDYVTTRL
Briefly: mouse TRPC4 channel activators, dose response, cell-based, HEK293 TRPC4/mu-opioid, Fluo-4 calcium (AID 434937). The format is functional.

In assay [16] the target is T7, DNA repair and recombination protein RAD54-like (Homo sapiens, UniProt Q92698).
T7 sequence (Q92698 whole entry): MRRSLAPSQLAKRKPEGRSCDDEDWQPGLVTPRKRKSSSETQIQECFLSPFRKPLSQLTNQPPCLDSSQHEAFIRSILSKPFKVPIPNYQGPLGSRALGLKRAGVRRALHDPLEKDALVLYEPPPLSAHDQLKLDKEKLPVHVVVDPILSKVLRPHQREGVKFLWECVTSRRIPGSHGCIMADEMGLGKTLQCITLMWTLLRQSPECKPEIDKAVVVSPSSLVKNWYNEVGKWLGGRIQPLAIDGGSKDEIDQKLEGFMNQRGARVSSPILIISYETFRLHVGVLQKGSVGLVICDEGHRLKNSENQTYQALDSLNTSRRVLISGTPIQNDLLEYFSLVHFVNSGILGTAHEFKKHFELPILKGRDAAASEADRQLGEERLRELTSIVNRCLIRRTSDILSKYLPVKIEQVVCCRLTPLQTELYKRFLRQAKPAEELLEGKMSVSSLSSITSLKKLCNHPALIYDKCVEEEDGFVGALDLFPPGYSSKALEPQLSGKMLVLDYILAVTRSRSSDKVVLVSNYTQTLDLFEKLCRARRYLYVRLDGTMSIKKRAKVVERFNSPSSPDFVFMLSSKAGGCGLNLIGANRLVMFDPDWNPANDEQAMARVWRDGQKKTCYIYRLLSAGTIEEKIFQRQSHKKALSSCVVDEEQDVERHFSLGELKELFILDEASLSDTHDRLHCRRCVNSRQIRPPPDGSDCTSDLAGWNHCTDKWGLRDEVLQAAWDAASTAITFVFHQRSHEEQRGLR
Briefly: inhibitors of human RAD54 branch migration, confirmation, biochemical, fluorescence, cherry-picked samples, dose series (AID 651657). The format is functional.

The target of a further assay is Cytochrome P450 2C9 (Homo sapiens, UniProt P11712). The conditions noted are these: Potency.
Assay [17] has as its target T8, Voltage-gated N-type calcium channel alpha-1B subunit/Amyloid beta A4 precursor protein-binding family A member 1 (Homo sapiens, UniProt Q00975+Q02410). The format is protein assay.
A further assay addresses Large T antigen (Simian virus 40, UniProt P03070). The format is functional, Betapolyomavirus macacae.
In assay [18] the target is T8, Voltage-gated N-type calcium channel alpha-1B subunit/Amyloid beta A4 precursor protein-binding family A member 1. The format is protein assay. This is another data set of the same source.
Assay [19] deals with Eukaryotic translation initiation factor 4E (Mus musculus, UniProt P63073). Briefly: eIF4E–eIF4G protein interaction inhibitors, dose response, biochemical, TR-FRET (AID 855).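 Note: potency for disrupting eIF4E binding to eIF4GI seen as loss of FRET.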 The format is functional. A general note: In TR-FRET formats the signal depends on donor and acceptor labels being close together.
Assay [20] can be described thus: THP-1 cell cytotoxicity, dose response, cytotoxicity control for Vif-APOBEC3G degradation inhibitor project, THP-1 cells (AID 1117359). The format is functional. The settings on record: Human immunodeficiency virus 1, THP-1.

Activity calls are given as the source filed them. A value given as a limit tells only on which side of the number the result lay.

T3 sequence (Q8VNN2 whole entry): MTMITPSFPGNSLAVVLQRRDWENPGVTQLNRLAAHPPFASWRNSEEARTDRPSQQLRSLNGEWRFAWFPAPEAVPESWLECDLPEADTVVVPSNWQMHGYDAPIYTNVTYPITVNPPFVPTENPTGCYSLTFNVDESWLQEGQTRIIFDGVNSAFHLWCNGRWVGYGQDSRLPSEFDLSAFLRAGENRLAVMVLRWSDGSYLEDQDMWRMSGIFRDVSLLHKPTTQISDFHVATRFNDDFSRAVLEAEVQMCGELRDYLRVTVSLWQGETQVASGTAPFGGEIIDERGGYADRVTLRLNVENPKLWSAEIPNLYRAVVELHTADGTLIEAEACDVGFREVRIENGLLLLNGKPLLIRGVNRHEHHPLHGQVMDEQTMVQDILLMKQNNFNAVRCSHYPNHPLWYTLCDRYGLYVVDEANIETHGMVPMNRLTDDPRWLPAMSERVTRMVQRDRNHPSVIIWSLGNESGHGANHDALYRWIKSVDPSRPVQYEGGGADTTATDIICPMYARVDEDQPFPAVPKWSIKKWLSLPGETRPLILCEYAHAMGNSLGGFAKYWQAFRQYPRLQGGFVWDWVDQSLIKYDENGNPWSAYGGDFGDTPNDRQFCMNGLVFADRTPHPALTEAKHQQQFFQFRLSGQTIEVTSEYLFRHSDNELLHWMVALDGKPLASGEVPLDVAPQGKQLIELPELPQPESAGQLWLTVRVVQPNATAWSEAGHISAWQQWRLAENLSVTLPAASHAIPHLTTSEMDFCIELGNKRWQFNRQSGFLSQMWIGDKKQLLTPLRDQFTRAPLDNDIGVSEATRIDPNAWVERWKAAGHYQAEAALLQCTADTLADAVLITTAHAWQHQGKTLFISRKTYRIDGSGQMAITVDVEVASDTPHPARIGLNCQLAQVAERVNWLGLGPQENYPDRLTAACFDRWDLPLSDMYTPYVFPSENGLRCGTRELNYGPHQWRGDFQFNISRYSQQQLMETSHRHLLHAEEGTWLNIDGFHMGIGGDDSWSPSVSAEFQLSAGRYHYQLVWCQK
Sequence of Peroxisome proliferator-activated receptor gamma/Nuclear receptor coactivator 2 (P37231 whole entry): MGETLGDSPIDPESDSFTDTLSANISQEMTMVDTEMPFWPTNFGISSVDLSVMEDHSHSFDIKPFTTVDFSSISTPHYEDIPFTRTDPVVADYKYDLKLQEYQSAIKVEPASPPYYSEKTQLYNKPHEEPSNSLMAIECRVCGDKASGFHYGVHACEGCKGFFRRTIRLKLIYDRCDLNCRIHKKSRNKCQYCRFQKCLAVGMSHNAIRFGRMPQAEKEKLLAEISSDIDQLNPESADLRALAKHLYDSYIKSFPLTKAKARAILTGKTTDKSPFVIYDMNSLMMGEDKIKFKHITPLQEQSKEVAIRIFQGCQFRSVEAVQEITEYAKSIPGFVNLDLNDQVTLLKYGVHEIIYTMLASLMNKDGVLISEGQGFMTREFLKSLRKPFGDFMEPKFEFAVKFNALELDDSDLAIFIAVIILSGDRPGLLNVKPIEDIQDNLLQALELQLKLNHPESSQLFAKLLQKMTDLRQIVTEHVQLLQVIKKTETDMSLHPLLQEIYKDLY
Sequence of Peroxisome proliferator-activated receptor gamma/Nuclear receptor coactivator 2 (Q15596 whole entry, further chain): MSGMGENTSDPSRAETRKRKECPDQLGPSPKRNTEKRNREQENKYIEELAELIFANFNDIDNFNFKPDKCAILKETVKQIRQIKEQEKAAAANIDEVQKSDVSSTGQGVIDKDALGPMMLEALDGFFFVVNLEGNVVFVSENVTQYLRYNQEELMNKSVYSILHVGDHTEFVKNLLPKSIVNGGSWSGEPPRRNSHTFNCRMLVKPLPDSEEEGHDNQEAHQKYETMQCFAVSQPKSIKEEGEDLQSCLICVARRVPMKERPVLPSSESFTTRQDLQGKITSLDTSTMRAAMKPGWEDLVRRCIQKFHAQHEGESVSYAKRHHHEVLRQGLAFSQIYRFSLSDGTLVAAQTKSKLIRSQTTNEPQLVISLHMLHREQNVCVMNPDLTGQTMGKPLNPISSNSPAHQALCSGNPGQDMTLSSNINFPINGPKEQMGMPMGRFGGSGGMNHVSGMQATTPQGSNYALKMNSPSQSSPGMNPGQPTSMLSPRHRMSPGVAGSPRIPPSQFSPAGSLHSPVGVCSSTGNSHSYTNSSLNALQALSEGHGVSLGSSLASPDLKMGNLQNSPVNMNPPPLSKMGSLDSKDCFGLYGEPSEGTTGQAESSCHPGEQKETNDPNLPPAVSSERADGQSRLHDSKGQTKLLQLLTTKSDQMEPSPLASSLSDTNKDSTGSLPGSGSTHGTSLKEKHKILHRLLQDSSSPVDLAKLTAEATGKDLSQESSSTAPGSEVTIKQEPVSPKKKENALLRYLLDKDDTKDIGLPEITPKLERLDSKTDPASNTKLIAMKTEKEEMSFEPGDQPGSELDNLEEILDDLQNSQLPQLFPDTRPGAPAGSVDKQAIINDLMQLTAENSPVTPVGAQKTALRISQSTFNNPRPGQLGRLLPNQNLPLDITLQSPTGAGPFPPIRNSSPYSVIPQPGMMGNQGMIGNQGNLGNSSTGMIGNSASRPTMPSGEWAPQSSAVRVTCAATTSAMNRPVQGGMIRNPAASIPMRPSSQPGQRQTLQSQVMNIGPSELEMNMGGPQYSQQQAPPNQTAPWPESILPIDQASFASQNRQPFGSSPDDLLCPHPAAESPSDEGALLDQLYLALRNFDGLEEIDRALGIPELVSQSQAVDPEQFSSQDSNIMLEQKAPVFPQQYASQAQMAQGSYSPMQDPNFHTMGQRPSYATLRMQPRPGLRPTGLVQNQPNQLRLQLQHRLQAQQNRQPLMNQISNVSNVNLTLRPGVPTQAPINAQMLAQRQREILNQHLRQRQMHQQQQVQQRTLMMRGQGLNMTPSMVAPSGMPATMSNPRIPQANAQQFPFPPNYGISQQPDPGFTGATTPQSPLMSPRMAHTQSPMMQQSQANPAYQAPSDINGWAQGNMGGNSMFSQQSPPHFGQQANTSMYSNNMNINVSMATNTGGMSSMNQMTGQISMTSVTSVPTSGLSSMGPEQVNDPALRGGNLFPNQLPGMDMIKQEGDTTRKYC
Sequence of Peroxisome proliferator-activated receptor gamma/Nuclear receptor coactivator 1 (P37231 whole entry): as the sequence (P37231 whole entry) above
Sequence of Peroxisome proliferator-activated receptor gamma/Nuclear receptor coactivator 1 (Q15788 whole entry, further chain): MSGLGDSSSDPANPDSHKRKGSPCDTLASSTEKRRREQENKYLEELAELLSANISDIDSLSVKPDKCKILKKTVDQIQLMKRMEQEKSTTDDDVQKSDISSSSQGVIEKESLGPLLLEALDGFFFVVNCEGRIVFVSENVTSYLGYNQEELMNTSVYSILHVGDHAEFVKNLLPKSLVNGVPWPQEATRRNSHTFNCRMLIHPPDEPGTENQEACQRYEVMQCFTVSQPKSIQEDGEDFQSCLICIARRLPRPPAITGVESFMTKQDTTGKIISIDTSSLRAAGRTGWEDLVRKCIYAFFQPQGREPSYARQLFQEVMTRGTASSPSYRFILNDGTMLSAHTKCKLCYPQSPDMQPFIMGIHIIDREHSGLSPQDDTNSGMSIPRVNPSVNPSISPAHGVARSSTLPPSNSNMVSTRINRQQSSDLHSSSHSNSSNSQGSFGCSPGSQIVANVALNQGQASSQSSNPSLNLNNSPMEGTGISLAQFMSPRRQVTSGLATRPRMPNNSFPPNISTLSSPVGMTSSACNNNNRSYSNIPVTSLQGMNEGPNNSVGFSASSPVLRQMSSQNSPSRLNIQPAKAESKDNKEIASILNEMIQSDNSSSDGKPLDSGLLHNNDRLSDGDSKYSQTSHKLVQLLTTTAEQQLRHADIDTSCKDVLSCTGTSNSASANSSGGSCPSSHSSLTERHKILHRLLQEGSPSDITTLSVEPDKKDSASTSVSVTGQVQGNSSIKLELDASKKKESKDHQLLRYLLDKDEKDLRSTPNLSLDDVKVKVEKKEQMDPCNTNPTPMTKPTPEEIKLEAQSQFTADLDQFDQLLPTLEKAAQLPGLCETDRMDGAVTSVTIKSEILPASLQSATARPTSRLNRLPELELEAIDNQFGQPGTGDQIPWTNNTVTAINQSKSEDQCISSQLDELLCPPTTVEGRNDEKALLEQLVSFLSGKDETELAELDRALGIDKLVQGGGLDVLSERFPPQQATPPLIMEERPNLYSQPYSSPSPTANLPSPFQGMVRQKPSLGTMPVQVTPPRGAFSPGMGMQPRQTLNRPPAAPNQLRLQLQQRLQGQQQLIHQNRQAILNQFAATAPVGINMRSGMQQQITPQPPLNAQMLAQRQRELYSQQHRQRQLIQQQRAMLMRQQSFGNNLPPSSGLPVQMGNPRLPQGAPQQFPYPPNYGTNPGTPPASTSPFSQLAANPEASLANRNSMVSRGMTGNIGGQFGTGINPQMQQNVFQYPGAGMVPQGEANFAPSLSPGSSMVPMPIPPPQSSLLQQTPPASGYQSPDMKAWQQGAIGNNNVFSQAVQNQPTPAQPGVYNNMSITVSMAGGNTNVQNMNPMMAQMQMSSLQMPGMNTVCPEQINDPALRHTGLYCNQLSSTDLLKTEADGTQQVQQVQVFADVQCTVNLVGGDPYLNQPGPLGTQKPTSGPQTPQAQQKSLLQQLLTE

In general, EC50 refers to the concentration at which the effect is half-maximal. In the case of `CCOc1ccc2nc(O)c(CN(CCO)C(c3nnnn3C3CCCCC3)C(C)C)cc2c1` (centres undefined), the EC50 in [1] is > 100 µM (inactive). Further, the IC50 with H9c2 is > 79 µM (inactive).
On to `COc1ccc(NC(=S)NC(NC(=O)c2ccccc2Cl)C(Cl)(Cl)Cl)c([N+](=O)[O-])c1` (centres undefined), for which the IC50 in assay [2] was 7.41 µM (active); in assay [4] it was 5.11 µM; in assay [5], > 66.6 µM (inactive); on Beta-galactosidase [6], > 66.6 µM (inactive); in assay [7], > 66 µM (inactive); in assay [8], > 66 µM (inactive). In addition, the EC50 on Beta-galactosidase [3] was > 31.5 µM (inactive).
For the compound `O=C(NCC1CCCCC1)c1ccc(Cl)c(S(=O)(=O)N2CCOCC2)c1`, on Integrin alpha-L, the EC50 is 20.1 µM (active).
As for `COc1ccccc1CNC(=O)C1CCN(S(=O)(=O)c2cccc3nonc23)CC1`, the IC50 in “cells [9]” was 3.4 µM (active).
A word on the AC50: it is the midpoint of the concentration-response curve, whichever way the signal moves. As for `Nc1c(C(=O)NCc2ccccc2)sc2nc(N3CCOCC3)c3c(c12)CCCC3`, the AC50 on Trypsin was 14.8 µM (active).
In general, CC50 refers to the concentration at which the toxic effect on the cells reaches its halfway point. Regarding `O=C(CCS(=O)(=O)c1ccccc1)Nc1nnc(-c2ccco2)o1`, the cytotoxic concentration (CC50) in assay [10] was > 40 µM (active). For the same compound, the IC50 in the assay “cells [11]” was 48.6 µM (active).
As for `CC(C)(C)C1CCc2c(sc(NC(=O)c3cccs3)c2C(N)=O)C1` (centres undefined), the EC50 in assay [12], in [13] and in [14] was > 79.4 µM (not active) in each case.
In the case of `Cc1ccc(C)c(CN2CCC(CNC(=O)CCc3nnc4ccc(N5CCCCC5)nn34)CC2)c1`, in assay [15], the EC50 was 0.299 µM (active).
On to `COc1cccc2sc3ccc(NCCC4CCCN4C)cc3c(=O)c12` (centres undefined), for which the EC50 in assay [1] was > 100 µM (inactive). Besides, the AC50 in assay [16] is 22.8 µM (active).
In the case of `COc1ccc([C@@H]2OC[C@]3(COC(C)=O)[C@H](C)C=C(C)[C@@H]2[C@H]3C)cc1`, the AC50 at Cytochrome P450 2C9 was 20 µM (inconclusive).
Consider `CCOCCn1/c(=N/C(=O)c2cc(Cl)sc2Cl)sc2cc(S(N)(=O)=O)ccc21`, for which the EC50 in assay [12] was 14 µM (not active); in assay [13], 13.4 µM (not active); in [14] it was 16.8 µM (not active).
For the compound `O=C(CSc1nc2ccccc2n1CCc1ccccc1)c1ccc(O)c(O)c1`, the IC50 in assay [17] is 9.4 µM (active); at Large T antigen, 35.9 µM (active); in assay [18], > 50 µM (inactive); in assay [19], 23.7 µM (active). In assay [20], the CC50 was > 40 µM (active).
